# Experimental data as given in patent publication US8969565B2, “Imidazo[1,2-b]pyridazine-based compounds, compositions comprising them, and methods of their use” (Lexicon Pharmaceuticals, Inc., priority 2012, dated 2015).
# Target: T1, AAK1 (Homo sapiens, UniProt Q2M2I8)
# T1 construct: HA; expressed in transfected cells; host or cells: HEK293F
# Assay: HEK281 cell-based assay (phospho-mu2 Western blot in transfected HEK293F cells)
# Settings: 3 hours incubation, read-out: CBA IC50
# How it was run: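 HEK293F cells co-transfected with full-length human AAK1/HA and Flag/AP2M1 were treated next day with 5 compound concentrations (3-fold dilutions) in DMEM+0.5% FBS for 3 hours at 37° C. Lysates were Western blotted for phospho-mu2, with total mu2 detected by anti-Flag.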
# T1 sequence (Q2M2I8 1-863 isoform Q2M2I8-2): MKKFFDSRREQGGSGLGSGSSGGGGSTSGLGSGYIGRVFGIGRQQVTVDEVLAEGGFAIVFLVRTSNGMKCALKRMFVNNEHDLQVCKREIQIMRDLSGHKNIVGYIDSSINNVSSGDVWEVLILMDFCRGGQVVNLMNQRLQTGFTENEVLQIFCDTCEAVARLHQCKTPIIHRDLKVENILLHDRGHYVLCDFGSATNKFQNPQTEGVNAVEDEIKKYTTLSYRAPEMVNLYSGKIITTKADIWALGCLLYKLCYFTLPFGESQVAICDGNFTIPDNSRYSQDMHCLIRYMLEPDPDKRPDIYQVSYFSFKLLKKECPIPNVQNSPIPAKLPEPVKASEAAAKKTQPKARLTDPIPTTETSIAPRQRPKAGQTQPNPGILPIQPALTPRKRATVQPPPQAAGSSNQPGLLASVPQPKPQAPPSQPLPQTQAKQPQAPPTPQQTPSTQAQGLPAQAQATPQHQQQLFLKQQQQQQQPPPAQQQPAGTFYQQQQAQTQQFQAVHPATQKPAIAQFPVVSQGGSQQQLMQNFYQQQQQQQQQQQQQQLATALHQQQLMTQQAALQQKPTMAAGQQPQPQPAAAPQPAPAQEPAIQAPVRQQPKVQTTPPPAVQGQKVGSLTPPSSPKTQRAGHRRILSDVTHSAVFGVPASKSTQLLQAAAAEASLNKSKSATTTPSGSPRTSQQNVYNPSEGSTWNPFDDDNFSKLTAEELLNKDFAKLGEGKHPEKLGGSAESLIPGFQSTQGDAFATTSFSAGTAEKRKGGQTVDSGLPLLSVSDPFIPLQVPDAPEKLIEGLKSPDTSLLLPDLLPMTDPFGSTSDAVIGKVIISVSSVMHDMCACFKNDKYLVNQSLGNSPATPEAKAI
row,IC50,SMILES
1,≤ 100 nM,"COc1ccc(F)cc1-c1cnc2ccc(NCCN(C(=O)OC(C)C)C(C)C)nn12 [isopropyl (2-((3-(5-fluoro-2-methoxyphenyl)imidazo[1,2-b]pyridazin-6-yl)amino)ethyl)(isopropyl)carbamate]"
2,≤ 10 nM,"C=Cc1cnc2ccc(NC[C@@H]3CCCN3C(=O)OC(C)C)nn12 [(S)-isopropyl 2-(((3-vinylimidazo[1,2-b]pyridazin-6-yl)amino)methyl)pyrrolidine-1-carboxylate]"
3,≤ 100 nM,"CCCCNc1ccc2ncc(-c3cc[nH]n3)n2n1 [N-butyl-3-(1H-pyrazol-3-yl)imidazo[1,2-b]pyridazin-6-amine]"
4,≤ 100 nM,"CC(=O)c1ccc(-c2cnc3ccc(NCCN(C)c4ccccc4)nn23)s1 [1-(5-(6-((2-(methyl(phenyl)amino)ethyl)amino)imidazo[1,2-b]pyridazin-3-yl)thiophen-2-yl)ethanone]"
5,≤ 100 nM,"CCOC(=O)N1CCC[C@H]1CNc1ccc2ncc(-c3ccncc3)n2n1 [(S)-ethyl 2-(((3-(pyridin-4-yl)imidazo[1,2-b]pyridazin-6-yl)amino)methyl)pyrrolidine-1-carboxylate]"
6,≤ 100 nM,"CC(=O)c1ccc(-c2cnc3ccc(NCCCN(C)C(=O)OC(C)(C)C)nn23)s1 [tert-butyl (3-((3-(5-acetylthiophen-2-yl)imidazo[1,2-b]pyridazin-6-yl)amino)propyl)(methyl)carbamate]"
7,≤ 100 nM,"CC(C)OCCNc1ccc2ncc(-c3ccns3)n2n1 [N-(2-isopropoxyethyl)-3-(isothiazol-5-yl)imidazo[1,2-b]pyridazin-6-amine]"
8,≤ 100 nM,"CNC(=O)c1ccc(-c2cnc3ccc(NCCN(C)C(=O)OC(C)(C)C)nn23)cc1 [tert-butyl methyl(2-((3-(4-(methylcarbamoyl)phenyl)imidazo[1,2-b]pyridazin-6-yl)amino)ethyl)carbamate]"
9,≤ 100 nM,"CNC(=O)c1cnc2ccc(N3CCN(C(=O)OC(C)C)CC3)nn12 [isopropyl 4-(3-(methylcarbamoyl)imidazo[1,2-b]pyridazin-6-yl)piperazine-1-carboxylate]"
10,≤ 100 nM,"CC(C)OC(=O)N(C)CCNc1ccc2ncc(-c3cscn3)n2n1 [isopropyl methyl(2-((3-(thiazol-4-yl)imidazo[1,2-b]pyridazin-6-yl)amino)ethyl)carbamate]"
11,≤ 10 nM,"CC(C)(C)OC(=O)N1CCCC[C@H]1CNc1ccc2ncc(-c3ccc(CN)cc3)n2n1 [(S)-tert-butyl 2-(((3-(4-(aminomethyl)phenyl)imidazo[1,2-b]pyridazin-6-yl)amino)methyl)piperidine-1-carboxylate]"
12,≤ 1000 nM,"CCCCNc1ccc2ncc(-c3ccc(C(=O)NCCN)c(OC)c3)n2n1 [N-(2-aminoethyl)-4-(6-(butylamino)imidazo[1,2-b]pyridazin-3-yl)-2-methoxybenzamide]"
13,≤ 1000 nM,"CCCCNc1ccc2ncc(-c3ccc(C(=O)NCCN)cc3F)n2n1 [N-(2-aminoethyl)-4-(6-(butylamino)imidazo[1,2-b]pyridazin-3-yl)-3-fluorobenzamide]"
14,≤ 10 nM,"CCCCNc1ccc2ncc(-c3ccc(C(=O)NCCN(CC)CC)cc3)n2n1 [4-(6-(butylamino)imidazo[1,2-b]pyridazin-3-yl)-N-(2-(diethylamino)ethyl)benzamide]"
15,≤ 100 nM,"CC(C)OC(=O)N(CCNc1ccc2ncc(-c3ccncc3)n2n1)C(C)C [isopropyl isopropyl(2-((3-(pyridin-4-yl)imidazo[1,2-b]pyridazin-6-yl)amino)ethyl)carbamate]"
16,≤ 100 nM,"COc1cnccc1-c1cnc2ccc(N3CCN(C(=O)CC(C)(C)C)CC3)nn12 [1-(4-(3-(3-methoxypyridin-4-yl)imidazo[1,2-b]pyridazin-6-yl)piperazin-1-yl)-3,3-dimethylbutan-1-one]"
17,≤ 100 nM,"COc1cnccc1-c1cnc2ccc(NCC3CCCC3)nn12 [N-(cyclopentylmethyl)-3-(3-methoxypyridin-4-yl)imidazo[1,2-b]pyridazin-6-amine]"
18,≤ 100 nM,"CC(C)N(CCNc1ccc2ncc(-c3ccc(C(N)=O)cc3)n2n1)C(=O)OC1CCCC1 [cyclopentyl (2-((3-(4-carbamoylphenyl)imidazo[1,2-b]pyridazin-6-yl)amino)ethyl)(isopropyl)carbamate]"
19,≤ 100 nM,"CC(C)(O)CCNc1ccc2ncc(-c3ccc(CN)cc3)n2n1 [4-((3-(4-(aminomethyl)phenyl)imidazo[1,2-b]pyridazin-6-yl)amino)-2-methylbutan-2-ol]"
20,≤ 100 nM,"NCc1ccc(-c2cnc3ccc(NC[C@@H]4CCCO4)nn23)cc1 [(S)-3-(4-(aminomethyl)phenyl)-N-((tetrahydrofuran-2-yl)methyl)imidazo[1,2-b]pyridazin-6-amine]"
21,≤ 100 nM,"CC(C)OC(=O)N1CCN(c2ccc3ncc(-c4ccncc4)n3n2)CC1 [isopropyl 4-(3-(pyridin-4-yl)imidazo[1,2-b]pyridazin-6-yl)piperazine-1-carboxylate]"
22,≤ 1000 nM,"CC(C)(C)CCNc1ccc2ncc(-c3ccc(C(=O)NCCN)cc3)n2n1 [N-(2-aminoethyl)-4-(6-((3,3-dimethylbutyl)amino)imidazo[1,2-b]pyridazin-3-yl)benzamide]"
23,≤ 100 nM,"COc1cnccc1-c1cnc2ccc(NC[C@@H]3CCCN3C(C)=O)nn12 [(S)-1-(2-(((3-(3-methoxypyridin-4-yl)imidazo[1,2-b]pyridazin-6-yl)amino)methyl)pyrrolidin-1-yl)ethanone]"
24,≤ 10 nM,"CC(C)OC(=O)N(C)CCNc1ccc2ncc(-c3ccc(C4CCCN4)cc3)n2n1 (stereo not shown) [isopropyl methyl(2-((3-(4-(pyrrolidin-2-yl)phenyl)imidazo[1,2-b]pyridazin-6-yl)amino)ethyl)carbamate]"
25,≤ 100 nM,"CCN(CCNc1ccc2ncc(-c3ccc(C(=O)NC)cc3)n2n1)C(=O)OC(C)C [isopropyl ethyl(2-((3-(4-(methylcarbamoyl)phenyl)imidazo[1,2-b]pyridazin-6-yl)amino)ethyl)carbamate]"
26,≤ 100 nM,"CCOC(=O)CCCNc1ccc2ncc(-c3ccc(C(C)=O)s3)n2n1 [Ethyl 4-((3-(5-acetylthiophen-2-yl)imidazo[1,2-b]pyridazin-6-yl)amino)butanoate]"
27,≤ 10 nM,"NCc1ccc(-c2cnc3ccc(NCCc4ccccc4OC(F)(F)F)nn23)cc1 [3-(4-(aminomethyl)phenyl)-N-(2-(trifluoromethoxy)phenethyl)imidazo[1,2-b]pyridazin-6-amine]"
28,≤ 1000 nM,"CNCCCNc1ccc2ncc(-c3ccc(C(C)=O)s3)n2n1 [1-(5-(6-((3-(methylamino)propyl)amino)imidazo[1,2-b]pyridazin-3-yl)thiophen-2-yl)ethanone]"
29,≤ 100 nM,"CC(C)OC(=O)N1CCN(c2ccc3ncc(-c4ccccc4)n3n2)CC1 [4-(3-Phenyl-imidazo[1,2-b]pyridazin-6-yl)-piperazine-1-carboxylic acid isopropyl ester]"

row,SMILES,IC50
1,"CCN(CC)CCNC(=O)c1ccc(-c2cnc3ccc(NCCOC(C)(C)C)nn23)cc1 [4-(6-((2-(tert-butoxy)ethyl)amino)imidazo[1,2-b]pyridazin-3-yl)-N-(2-(diethylamino)ethyl)benzamide]",≤ 100 nM
2,"CCN(CC)CCNC(=O)c1ccc(-c2cnc3ccc(NCCOCC(C)C)nn23)cc1 [N-(2-(diethylamino)ethyl)-4-(6-((2-isobutoxyethyl)amino)imidazo[1,2-b]pyridazin-3-yl)benzamide]",≤ 100 nM
